Results taken from patent US20230126893A1, “[(1,4,5-TRISUBSTITUTED-1H-PYRAZOL-3-YL)SULFANYL]ACETIC ACID DERIVATIVES, SALTS THEREOF, AND USE THEREOF AS ACTIVE HERBICIDAL INGREDIENTS” (BAYER AKTIENGESELLSCHAFT, priority 2020, published 2023).

What was measured:
Format in all cases: in vivo
[1] = system: Bassia scoparia; assay: Pre-emergence herbicidal effect against KCHSC; details: 1280 g/ha, visual score after 3 weeks, 100% = plants have died, 0% = like control plants
Description: (§1) 1. Pre-emergence herbicidal effect and crop plant compatibility Seeds of monocotyledonous and dicotyledonous weed plants and crop plants are laid out in sandy loam soil in wood-fibre pots and covered with soil. The compounds of the invention, formulated in the form of wettable powders (WP) or as emulsion concentrates (EC), are then applied to the surface of the covering soil as aqueous suspension or emulsion at a water application rate equating to 600 to 800 L/ha with addition of 0.2% wetting agent. After the treatment, the pots are placed in a greenhouse and kept under good growth conditions for the trial plants. The damage to the test plants is scored visually after a test period of 3 weeks by comparison with untreated controls (herbicidal activity in percent (%): 100% activity=the plants have died, 0% activity=like control plants). [table]

[2] = system: Echinochloa crus-galli; assay: Pre-emergence herbicidal effect against ECHCG; details: 1280 g/ha, visual score after 3 weeks, 100% = plants have died, 0% = like control plants
In short: (§2)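 Seeds sown in sandy loam and covered with soil; WP or EC formulations sprayed onto the soil surface as aqueous suspension/emulsion at 600 to 800 L/ha water with 0.2% wetting agent. Greenhouse-grown; damage scored visually after 3 weeks versus untreated controls (0% = like control, 100% = plants dead).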

[3] = system: Poa annua; assay: Post-emergence herbicidal effect against POAAN; details: 1280 g/ha, visual assessment about 3 weeks after treatment, 100% = plants have died, 0% = like control plants
In short: (§3)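 Greenhouse-grown weeds in sandy loam, treated at one-leaf stage 2–3 weeks after sowing; compounds as WP or EC sprayed on foliage as aqueous suspension/emulsion at 600–800 l/ha water with 0.2% wetting agent. Visual rating after about 3 weeks versus untreated controls, 0% (like control) to 100% (plants dead).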

[4] = system: Lolium rigidum; assay: Pre-emergence herbicidal effect against LOLRI; details: 1280 g/ha, visual score after 3 weeks, 100% = plants have died, 0% = like control plants
In short: as §2

[5] = system: Stellaria media; assay: Post-emergence herbicidal effect against STEME; details: 1280 g/ha, visual assessment about 3 weeks after treatment, 100% = plants have died, 0% = like control plants
In short: as §3

[6] = system: Setaria viridis; assay: Post-emergence herbicidal effect against SETVI; details: 1280 g/ha, visual assessment about 3 weeks after treatment, 100% = plants have died, 0% = like control plants
In short: as §3

[7] = system: Veronica persica; assay: Pre-emergence herbicidal effect against VERPE; details: 1280 g/ha, visual score after 3 weeks, 100% = plants have died, 0% = like control plants
In short: as §2

[8] = system: Poa annua; assay: Pre-emergence herbicidal effect against POAAN; details: 1280 g/ha, visual score after 3 weeks, 100% = plants have died, 0% = like control plants
In short: as §2

[9] = system: Bassia scoparia; assay: Post-emergence herbicidal effect against KCHSC; details: 1280 g/ha, visual assessment about 3 weeks after treatment, 100% = plants have died, 0% = like control plants
In short: as §3

[10] = system: Alopecurus myosuroides; assay: Pre-emergence herbicidal effect against ALOMY; details: 1280 g/ha, visual score after 3 weeks, 100% = plants have died, 0% = like control plants
In short: as §2

[11] = system: Abutylon threophrasti; assay: Post-emergence herbicidal effect against ABUTH; details: 1280 g/ha, visual assessment about 3 weeks after treatment, 100% = plants have died, 0% = like control plants
In short: as §3

[12] = system: Tripleurospermum inodorum; assay: Pre-emergence herbicidal effect against MATIN; details: 1280 g/ha, visual score after 3 weeks, 100% = plants have died, 0% = like control plants
In short: as §2

[13] = system: Amaranthus retroflexus; assay: Post-emergence herbicidal effect against AMARE; details: 1280 g/ha, visual assessment about 3 weeks after treatment, 100% = plants have died, 0% = like control plants
Description: (§4) [table] 2. Post-emergence herbicidal effect and crop plant compatibility Seeds of monocotyledonous and dicotyledonous weed and crop plants are laid out in sandy loam soil in wood-fibre pots, covered with soil and cultivated in a greenhouse under good growth conditions. 2 to 3 weeks after sowing, the test plants are treated at the one-leaf stage. The compounds of the invention, formulated in the form of wettable powders (WP) or as emulsion concentrates (EC), are then sprayed onto the green parts of the plants as aqueous suspension or emulsion at a water application rate equating to 600 to 800 l/ha with addition of 0.2% wetting agent. After the test plants have been left to stand in the greenhouse under optimal growth conditions for about 3 weeks, the action of the preparations is assessed visually in comparison to untreated controls (herbicidal action in percent (%): 100% activity=the plants have died, 0% activity=like control plants).

[14] = system: Veronica persica; assay: Post-emergence herbicidal effect against VERPE; details: 1280 g/ha, visual assessment about 3 weeks after treatment, 100% = plants have died, 0% = like control plants
In short: as §3

[15] = system: Tripleurospermum inodorum; assay: Post-emergence herbicidal effect against MATIN; details: 1280 g/ha, visual assessment about 3 weeks after treatment, 100% = plants have died, 0% = like control plants
In short: as §3

[16] = system: Amaranthus retroflexus; assay: Pre-emergence herbicidal effect against AMARE; details: 1280 g/ha, visual score after 3 weeks, 100% = plants have died, 0% = like control plants
In short: as §2

[17] = system: Setaria viridis; assay: Pre-emergence herbicidal effect against SETVI; details: 1280 g/ha, visual score after 3 weeks, 100% = plants have died, 0% = like control plants
In short: as §2

[18] = system: Stellaria media; assay: Pre-emergence herbicidal effect against STEME; details: 1280 g/ha, visual score after 3 weeks, 100% = plants have died, 0% = like control plants
In short: as §2

[19] = system: Abutylon threophrasti; assay: Pre-emergence herbicidal effect against ABUTH; details: 1280 g/ha, visual score after 3 weeks, 100% = plants have died, 0% = like control plants
Description: as §1

[20] = system: Echinochloa crus-galli; assay: Post-emergence herbicidal effect against ECHCG; details: 1280 g/ha, visual score after about 3 weeks, 100% = plants have died, 0% = like control plants
In short: as §3

[21] = system: Digitaria sanguinalis; assay: Pre-emergence herbicidal effect against DIGSA; details: 1280 g/ha, visual score after 3 weeks, 100% = plants have died, 0% = like control plants
In short: as §2

[22] = system: Lolium rigidum; assay: Post-emergence herbicidal effect against LOLRI; details: 1280 g/ha, visual score after about 3 weeks, 100% = plants have died, 0% = like control plants
Description: as §4

[23] = system: Alopecurus myosuroides; assay: Post-emergence herbicidal effect against ALOMY; details: 1280 g/ha, visual score after about 3 weeks, 100% = plants have died, 0% = like control plants
In short: as §3

[24] = system: Digitaria sanguinalis; assay: Post-emergence herbicidal effect against DIGSA; details: 1280 g/ha, visual score after about 3 weeks, 100% = plants have died, 0% = like control plants
In short: as §3

SMILES | Pre-emergence action against KCHSC [1] [%] | Pre-emergence action against ECHCG [2] [%] | Post-emergence action against POAAN [3] [%] | Pre-emergence action against LOLRI [4] [%] | Post-emergence action against STEME [5] [%] | Post-emergence action against SETVI [6] [%] | Pre-emergence action against VERPE [7] [%] | Pre-emergence action against POAAN [8] [%] | Post-emergence action against KCHSC [9] [%] | Pre-emergence action against ALOMY [10] [%] | Post-emergence action against ABUTH [11] [%] | Pre-emergence action against MATIN [12] [%] | Post-emergence action against VERPE [14] [%] | Post-emergence action against MATIN [15] [%] | Pre-emergence action against SETVI [17] [%] | Pre-emergence action against STEME [18] [%] | Pre-emergence action against ABUTH [19] [%] | Post-emergence action against ECHCG [20] [%] | Pre-emergence action against DIGSA [21] [%] | Post-emergence action against ALOMY [23] [%] | also measured
CCOC(=O)C[S+]([O-])c1nn(-c2ccccc2F)c(-c2cncc(Cl)c2)c1Br (stereo not drawn) [II-013] | 90 | 100 | 100 | 100 | 100 | 90 | 100 | 100 | 90 | 100 | 100 | 100 | 100 | 100 | 100 | 100 | 90 | 100 | 100 | – | Post-emergence action against AMARE [13]: 90%; Pre-emergence action against AMARE [16]: 100%
COC(=O)CCNC(=O)CSc1nn(-c2ccccc2F)c(-c2cncc(F)c2)c1Br [VII-010] | 90 | 90 | 100 | 100 | – | 90 | 100 | 100 | 90 | 90 | 90 | 100 | 90 | 90 | 100 | 90 | – | 90 | – | 90 | Post-emergence action against LOLRI [22]: 90%
COC(=O)CNC(=O)CSc1nn(-c2ccccc2F)c(-c2cncc(F)c2)c1Br [VII-009] | – | 90 | 100 | 100 | 100 | 90 | 100 | 100 | 90 | 90 | 90 | 100 | 90 | 90 | 100 | 100 | 90 | 90 | – | 90 | –
CCOC(=O)CSc1nn(-c2cc(F)ccc2F)c(-c2ccc(F)c(F)c2)c1Br [Example I-013] | 90 | 100 | 100 | 100 | 100 | – | 100 | 100 | 90 | 100 | 90 | 100 | 100 | 100 | 100 | 100 | – | – | 100 | 100 | Post-emergence action against DIGSA [24]: 100%; Post-emergence action against AMARE [13]: 100%; Pre-emergence action against AMARE [16]: 100%
CCOC(=O)CSc1nn(-c2ccc(F)cc2)c(-c2ccc(F)cc2)c1Br [Example I-019] | 100 | 100 | 100 | – | 90 | 90 | 100 | 100 | 100 | 90 | 100 | 100 | 100 | 100 | 100 | 90 | 90 | – | 100 | 100 | Post-emergence action against DIGSA [24]: 100%
CCOC(=O)CSc1nn(-c2ccccc2F)c(-c2cncc(Cl)c2)c1Br [II-007] | 100 | 100 | 100 | 100 | 100 | 90 | 100 | 100 | – | 100 | 90 | 100 | 100 | 100 | 100 | 100 | 90 | 100 | 100 | 100 | Post-emergence action against DIGSA [24]: 100%; Post-emergence action against AMARE [13]: 100%; Pre-emergence action against AMARE [16]: 100%
CCOC(=O)C[S+]([O-])c1nn(-c2ccccc2F)c(-c2cncc(F)c2)c1Br (stereo not drawn) [II-011] | 100 | 100 | 100 | 100 | 100 | 100 | 100 | 100 | 100 | 100 | 90 | 100 | 90 | 90 | 100 | 100 | 90 | 100 | 100 | 100 | Post-emergence action against DIGSA [24]: 100%; Post-emergence action against AMARE [13]: 90%; Pre-emergence action against AMARE [16]: 100%
